Like-named read-outs stand apart in the source and are kept apart here.
Tests used:
[1] = test system: PKCμ and PKCδ in HFL-1 cells; assay: Activation of PKC isoforms in non-cancerous lung fibroblast HFL-1 cells; type: cell-based, human; settings: 30 minutes
[2] = test system: PKCδ, PKCμ, c-Raf in xMiaPaCa-2, MiaPaCa-2, Panc6.03, Panc1; assay: Activation of PKC isoforms in pancreatic cancer cell lines, Western blot; type: cell-based; settings: K101A 1 μM, K102 0.1 μM
[3] = test system: MH22A; assay: Anti-cell proliferative effects, MH22A; type: cell-based, mouse
[4] = test system: lymphoma cell lines; assay: Proliferation assay, 9 lymphoma cell lines; type: cell-based
Protocol: PKC activators were tested in 9 lymphoma cell lines (Table 10). Proliferation assays were performed as described in Example 1.

[5] = test system: Capan-1; assay: Proliferation assay (CellTiter Glo), Capan-1; type: cell-based
Protocol: (§1) Briefly, cells at a density of 1,000-10,000 cells/well were seeded in 96-well plates and incubated at 37′C for 24 hours. A series of 9 different concentrations of compound stocks (500×) were created by 3-fold serial dilution in DMSO. These compounds were further diluted in culture media and then added to cells so that the final DMSO concentration was 0.2%. After 96 hours of incubation, 50 μL of CellTiter Glo reagent (Promega) was added to each well and luminescence was measured after 10 minutes using EnVision (PerkinElmer). […] The dose range for most compounds was 4.6 nM-30 μM. The dose ranges for some compounds were adjusted downward to 0.46 nM-3 μM or 0.08 nM-0.5 μM or 0.03 nM-0.2 μM. Luminescence from cells treated with […] alone was set as Max and % of inhibition was calculated as follows: Inhibition %=(Max-Sample value)/Max*100. Data was analyzed using XL-fit software (ID Business Solutions Ltd.) and EC50, relative EC50, and % of top inhibition were calculated. The results are shown in Tables 3-6 for pancreatic cancer, lung cancer, colon/gastric cancer, and leukemia cell lines.

[6] = test system: AsPC-1; assay: Proliferation assay (CellTiter Glo), AsPC-1; type: cell-based
Protocol: as §1

[7] = test system: Panc2.03; assay: Proliferation assay (CellTiter Glo), Panc2.03; type: cell-based
Protocol: as §1

[8] = test system: Panc2.13; assay: Proliferation assay (CellTiter Glo), Panc2.13; type: cell-based
Protocol: as §1

[9] = test system: A549; assay: Proliferation assay (CellTiter Glo), A549; type: cell-based
Protocol: as §1

[10] = test system: H441; assay: Proliferation assay (CellTiter Glo), H441; type: cell-based
Protocol: as §1

[11] = test system: H727; assay: Proliferation assay (CellTiter Glo), H727; type: cell-based
Protocol: as §1

[12] = test system: LS180; assay: Proliferation assay (CellTiter Glo), LS180; type: cell-based
Protocol: as §1

[13] = test system: SW620; assay: Proliferation assay (CellTiter Glo), SW620; type: cell-based
Protocol: as §1

[14] = test system: HCT116; assay: Proliferation assay (CellTiter Glo), HCT116; type: cell-based
Protocol: as §1

[15] = test system: AGS; assay: Proliferation assay (CellTiter Glo), AGS; type: cell-based
Protocol: as §1

[16] = test system: HL60; assay: Proliferation assay (CellTiter Glo), HL60; type: cell-based
Protocol: as §1

[17] = test system: THP1; assay: Proliferation assay (CellTiter Glo), THP1; type: cell-based
Protocol: as §1

[18] = test system: CCRF-CEM; assay: Proliferation assay (CellTiter Glo), CCRF-CEM; type: cell-based
Protocol: as §1

[19] = test system: H838; assay: Proliferation assay (CellTiter Glo), H838; type: cell-based; settings: H838 (WT K-ras)
Protocol: as §1, with “calculated.” for “calculated. The results are shown in Tables 3-6 for pancreatic cancer, lung cancer, colon/gastric cancer, and leukemia cell lines.”
(§2) Other cancer cell lines having wild-type K-ras status and K-ras mutation at G12 were also screened using the PKC activator compounds. […] K-104 was tested in a range of 0.03 nM-0.2 μM. […] The dose ranges were adjusted downward to 0.46 nM-3 μM for K-102 and 0.08 nM-0.5 μM for K-103 for some cell lines.

[20] = test system: H1915; assay: Proliferation assay (CellTiter Glo), H1915; type: cell-based; settings: H1915 (WT K-ras)
Protocol: as §1, with “calculated.” for “calculated. The results are shown in Tables 3-6 for pancreatic cancer, lung cancer, colon/gastric cancer, and leukemia cell lines.”
as §2

[21] = test system: HT29; assay: Proliferation assay (CellTiter Glo), HT29; type: cell-based; settings: HT29 (WT K-ras)
Protocol: as §1, with “calculated.” for “calculated. The results are shown in Tables 3-6 for pancreatic cancer, lung cancer, colon/gastric cancer, and leukemia cell lines.”
as §2

[22] = test system: Colo205; assay: Proliferation assay (CellTiter Glo), Colo205; type: cell-based; settings: Colo205 (WT K-ras)
Protocol: as §1, with “calculated.” for “calculated. The results are shown in Tables 3-6 for pancreatic cancer, lung cancer, colon/gastric cancer, and leukemia cell lines.”
as §2

[23] = test system: RPMI8226; assay: Proliferation assay (CellTiter Glo), RPMI8226; type: cell-based; settings: RPMI8226 (K-ras: G12A)
Protocol: as §1, with “calculated.” for “calculated. The results are shown in Tables 3-6 for pancreatic cancer, lung cancer, colon/gastric cancer, and leukemia cell lines.”
as §2

[24] = absolute EC50, 96 hours, read-out: Ab EC50
[25] = relative EC50, 96 hours, read-out: Re EC50

C/C=C(/C)C(=O)O[C@H]1C(C)=C[C@]23C(=O)[C@@H](C=C(CO)[C@@H](O)[C@]12O)[C@H]1[C@@H](C[C@H]3C)C1(C)C [Compound K-102, Ingenol-3-angelate, reference compound] was tested, and the “phosphorylation of PKCμ at Ser916 and Ser744/748, and PKCδ at Thr505 and Tyr311” value [1] was “resulted in phosphorylation”, the “phosphorylations of PKCδ at Thr505 and PKCμ at Ser744/748” value ([2]; all four pancreatic cell lines) was “increased” and the “phosphorylation of c-Raf at Ser338” value ([2]; pancreatic cell lines) was “induced phosphorylation”. The “sensitivity to anti-cell proliferative effects” value [3] was “insensitive”, the “sensitivity of lymphoma cell lines” value ([4]; 9 lymphoma cell lines of Table 10) was “Seven lymphoma cell lines were very sensitive” and the “sensitivity of lymphoma cell lines” value ([4]; Daudi and Raji) was “not sensitive”. It also gave an IC50 ([4]; among the sensitive lymphoma cell lines, read-out: IC50 ranges) of 0.8 to 5 nM.

CC(=O)OCC1=C[C@H]2[C@@H]3C(C)(C)[C@]3(OC(C)=O)C[C@@H](C)[C@]2(O)C2C=C(C)C(=O)[C@@]2(O)C1 (stereo partly shown) [Compound K-101E] was tested, and the Top inhibition % ([5]; 96 hours) was 44.6%, the EC50 [5, 24] was > 30000 nM and the EC50 [5, 25] was 830 nM. For the same molecule, the Top inhibition % ([6]; 96 hours) was 35.2%, the EC50 [6, 24] was > 30000 nM and the EC50 [6, 25] was 2780 nM. The Top inhibition % ([7]; 96 hours) was 36.5%, the EC50 [7, 24] was > 30000 nM and the EC50 [7, 25] was 1920 nM. For the same molecule, the Top inhibition % ([8]; 96 hours) was 49.8%, the EC50 [8, 24] was > 30000 nM and the EC50 [8, 25] was 44 nM. For the same molecule, the Top inhibition % ([9]; 96 hours) was 78.7%, the EC50 [9, 24] was 2640 nM and the EC50 [9, 25] was 1560 nM. The Top inhibition % ([10]; 96 hours) was 49.1%, the EC50 [10, 24] was > 30000 nM and the EC50 [10, 25] was 2610 nM. The Top inhibition % ([11]; 96 hours) was 49.1%, the EC50 [11, 24] was > 30000 nM and the EC50 [11, 25] was 620 nM. The Top inhibition % ([12]; 96 hours) was 1.3%, the EC50 [12, 24] was > 30000 nM and the Top inhibition % ([13]; 96 hours) was 0.0%. The EC50 [13, 24] was > 30000 nM, the Top inhibition % ([14]; 96 hours) was 27.4% and the EC50 [14, 24] was > 30000 nM. The EC50 [14, 25] was 6640 nM, the Top inhibition % ([15]; 96 hours) was 25.9% and the EC50 [15, 24] was > 30000 nM. For the same molecule, the EC50 [15, 25] was 4380 nM, the Top inhibition % ([16]; 96 hours) was 63.4% and the EC50 [16, 24] was 3050 nM. For the same molecule, the EC50 [16, 25] was 1920 nM, the Top inhibition % ([17]; 96 hours) was 51.6% and the EC50 [17, 24] was 3600 nM. The EC50 [17, 25] was 1020 nM, the Top inhibition % ([18]; 96 hours) was 34.3% and the EC50 [18, 24] was > 30000 nM. The EC50 [18, 25] was 270 nM, the “Top inhibition %” value [19] was 26.8% and the “Top inhibition %” value [20] was 35.6%. The “Top inhibition %” value [21] was 31.7%, the “Top inhibition %” value [22] was 85.8% and the “Top inhibition %” value [23] was 32.25%.
